Columns and labels:
[1] = Degradation of amoxicillin by gamma radiation, 1H and 13C NMR; format: physicochemical; settings: 5 mg/mL in water/D2O 1:1, 7 kGy
Experimental: Further, an additional confirmation of the degradation of amoxicillin was conducted using ^1H and ^13C NMR studies. Amoxicillin is dissolved in water and diluted at a ratio of 1:1 using D2O. A high concentration of amoxicillin (5 mg/mL) was used for this technique, with water as the NMR solvent. […] It is observed that the proton signals (at 4.5 to 4.8 ppm) of amoxicillin before irradiation are disappearing upon irradiation treatment. FIG. 11 illustrates the ^13C spectra of 5 mg/mL amoxicillin before and after irradiation treatment at 7 kGy for amoxicillin. Overall, the intensities of ^13C peaks are reduced (approximately 50%) after irradiation treatment indicating the decomposition and reduction in amoxicillin concentration in the sample.

[2] = Removal of amoxicillin spiked in water, milk, eggs and chicken meat by gamma radiation, HPLC; format: physicochemical; settings: for Removal percentage: 7 kGy, average across 1, 10, 20 and 50 |iM, assuming 15% error
Excerpt: In all the example mentioned in the foregoing, the source of gamma radiation is a Cobalt-60 gamma rays source model Gamma Cell 220 from MDS Nordion, Canada. The source of gamma radiation was calibrated using aqueous ferrous sulfate (Fricke dosimetry) solution.
The desired concentration of amoxicillin was spiked in water, milk, eggs, and chicken meat. 20 |iL of spiked water samples before and post irradiation treatment was directly injected in HPLC. Amoxicillin spiked in milk, eggs, and chicken meat was extracted using acetonitrile. 2 mL (milk or eggs) or 2 g (chicken meat) of the spiked samples was mixed with 5 mL acetonitrile and shaken for 10 minutes following which the samples were centrifuged for 5 minutes at a speed of 3000 rpm. 5 mL of the supernatant was evaporated in a rotary-evaporation system and the antibiotic residue was dissolved in 2 mL of double distilled water. 20 |iL of the extracted samples was injected in HPLC.
Direct Uv-Vis measurements cannot be conducted to quantify the antibiotics in samples extracted from dairy or poultry products due to the significant chemical interference. FIG. 5 illustrates a comparison of HPLC signals of a range of amoxicillin concentration before and after irradiation with 7 kGy.
Removal percentage of amoxicillin in different samples with varied concentrations is reported by comparing the original concentrations with the corresponding post irradiation concentrations (i.e. before and after irradiation). FIG. 9 illustrates the average removal percentages for each sample type across the different concentration range (1, 10, 20, and 50 |iM), assuming 15% error in the observations. It was observed that there was 100% removal and decomposition of amoxicillin in water & milk samples and 80% removal of amoxicillin in eggs & chicken meat samples at a radiation dose of 7 kGy, within the permissible limits accepted by IAEA for food irradiation.

[3] = test system: E-coli; experiment: E-coli growth inhibition experiments; format: cell-based
Experimental: With reference to FIG. 12 (top panel), two control experiments with water were conducted.

[4] = Degradation of antibiotics in double distilled water by gamma radiation, UV-Vis absorption; format: physicochemical; settings: 50 |iM in double distilled water, 7 kGy gamma radiation
Experimental: The three target antibiotics as mentioned above were dissolved in double distilled water to make desired concentrations (in 10 mL volume). […] UV-Vis absorption spectra of the studied antibiotics in solution were recorded before and after irradiation treatment at different doses.
With reference to FIG. 2A, the maximum absorption of doxycycline at 275 nm was plotted against the concentration.

In the case of `CC1(C)S[C@@H]2[C@H](NC(=O)[C@H](N)c3ccc(O)cc3)C(=O)N2[C@H]1C(=O)O` [amoxicillin], the “Reduction of intensities of 13C peaks after irradiation treatment” value [1] is reported as “approximately 50%”, the Removal percentage ([2]; chicken meat samples) is reported as 80% and the Removal percentage ([2]; eggs samples) is reported as 80%. The Removal percentage ([2]; milk samples) was 100%, the “Concentration of amoxicillin after irradiation (HPLC)” value ([2]; range of concentrations, after irradiation with 7 kGy) was “below the detection limit of HPLC” and the Removal percentage ([2]; water samples) was 100%. The “Antimicrobial effect on E-coli growth” value ([3]; amoxicillin 150 |iM irradiated at 7 kGy) was “complete loss of antimicrobial effect”, the “Antimicrobial effect on E-coli growth” value ([3]; non-irradiated amoxicillin sample) was “growth inhibition” and the “Removal (decrease of UV-Vis absorption bands) upon gamma irradiation” value [4] was “completely removed”.

— patent US20200221739A1, “METHOD FOR REMOVAL OF ANTIBIOTIC RESIDUES FROM FOOD PRODUCTS” (The King Abdulaziz City for Science and Technology, priority 2016, published 2020)
